# According to PMC11697113, “The Hsc70 system maintains the synaptic SNARE protein SNAP-25 in an assembly-competent state and delays its aggregation [drawing 1]” (The Journal of Biological Chemistry, 2024):
# Target: T1, Hsc70 (Homo sapiens, UniProt P11142)
# T1 construct: 6X His-tag (TEV-cleavable) (cleaved yes); made in house; host or cells: E. coli Rosetta (DE3)
# Experiment: SNAP-25 cellulose-bound peptide array probed with Hsc70
# Assay type: binding
# Details: Hsc70 100 nM, 1 h, 25 °C; for Hsc70 binding of the SNAP-25 sequence in the peptide array: ADP/ATP, anti-Hsc70 chemiluminescence
# Description: To explore in greater depth the binding sites for Hsc70 in SNAP-25, we screened a cellulose-bound peptide array spanning the full SNAP-25 sequence with 13-residue long peptides, overlapping by ten residues, and probed with Hsc70 in the presence of a two-fold excess of ATP and […] of ADP. The binding of Hsc70 to sites in the array was then visualized with an anti-Hsc70 primary antibody and a horse radish peroxidase-tagged secondary antibody to enable visualization by chemiluminescence (Fig. 4A). To quantitatively analyze the array, we used ImageJ (https://imagej.net/ij/) and plotted the intensity under the area for each spot. […] One site is located in the SNN, one in the LOOP, and one in the LOOP-SNC region (called SNC site) (Fig. 4A) […] (Fig. 1C). […] The binding site in the LOOP region is very close to the cysteine residues that become palmitoylated as SNAP-25 moves to its membrane-localized state. It is formally possible that Hsc70 binds to SNAP-25 in the initial un-palmitoylated state and dissociates upon palmitoylation and association with the plasma membrane. However, it can be assumed that the binding of this region to Hsc70 is not implicated in the events directly preceding SNARE complex assembly, as it will not be accessible to the chaperone. Therefore, we posit that chaperone binding to the SNN and SNC regions plays a mechanistic role in facilitating productive SNAP-25 association with the other SNARE proteins.
# B, quantification of the spots from Figure 4A using ImageJ (Hsc70 (gray) and Hsc70-CSPαJ (dark gray)). Signals corresponding to SNN, Loop and Loop-SNC peptides are marked in orange, blue, and green, respectively. Orange, blue, and green lines at the top of the graph indicate the SNN, Loop and SNC regions, respectively. C, schematic representation of SNAP-25 showing the Hsc70 binding sequences (SNN (orange), Loop (black), and Loop-SNC (green)) identified in the peptide array. […]
# A peptide array of SNAP-25 was obtained from CEM corporation. […] The chemiluminescence was captured in a G-box (Syngene), and the images were analyzed using ImageJ.
# T1 sequence (P11142 whole entry): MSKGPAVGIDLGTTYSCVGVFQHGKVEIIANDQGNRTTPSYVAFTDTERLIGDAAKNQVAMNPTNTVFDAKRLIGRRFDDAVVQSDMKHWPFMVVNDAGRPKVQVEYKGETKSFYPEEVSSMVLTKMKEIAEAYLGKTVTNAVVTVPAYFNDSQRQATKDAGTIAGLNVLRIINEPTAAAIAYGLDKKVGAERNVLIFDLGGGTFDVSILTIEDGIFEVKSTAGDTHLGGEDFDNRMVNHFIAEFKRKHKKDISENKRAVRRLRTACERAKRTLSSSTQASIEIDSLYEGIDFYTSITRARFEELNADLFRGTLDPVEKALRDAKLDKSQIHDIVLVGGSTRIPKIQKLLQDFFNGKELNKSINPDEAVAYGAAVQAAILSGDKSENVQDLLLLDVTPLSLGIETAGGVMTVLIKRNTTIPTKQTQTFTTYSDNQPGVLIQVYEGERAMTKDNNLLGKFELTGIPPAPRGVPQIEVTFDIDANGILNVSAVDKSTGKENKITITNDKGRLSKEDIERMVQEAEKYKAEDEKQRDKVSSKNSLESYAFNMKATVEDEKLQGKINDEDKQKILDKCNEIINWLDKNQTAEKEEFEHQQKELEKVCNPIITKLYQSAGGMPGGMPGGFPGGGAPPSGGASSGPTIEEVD
Substance,Hsc70 binding of the SNAP-25 sequence in the peptide array,"number of major Hsc70 binding sites on SNAP-25 (13-residue peptides overlapping by ten, 20 μM ADP, 200 nM ATP, ECL, ImageJ, sites in SNN, LOOP and LOOP-SNC)"
"EREQMAISGGFIRR [SNCP, peptide … from the LOOP-SNC domain of SNAP-25]",strong binding,–
"RRMLQLVEESK [SNNP, peptide … from the SNN domain of SNAP-25]",strong binding,–
synaptosomal-associated 25 kDa protein [SNAP-25],–,Three major Hsc70 binding sites
